Laboratory results taken from patent publication US20210008118A1, “METHOD FOR ENHANCING MIGRATION OF STEM CELLS INTO CANCER CELLS” (GACHON UNIVERSITY OF INDUSTRY-ACADEMIC COOPERATION …, priority 2019, published 2021).

Test system: mesenchymal stem cells (BMMSCs, ADMSCs) migrating into cancer cells (A549, H1975, PANC-1, U87MG)
Assay: Transwell migration of stem cells treated with ion channel inhibitor DIDS or ion channel antibodies
Format: cell-based
Conditions: 500 μM DIDS or ion channel antibodies; all cancer cells used (A549, H1975, PANC-1, U87MG)
Procedure: In vitro mobility measurement of stem cells according to an embodiment of the present invention was performed using a transwell membrane bilayer plate having a pore size of 8 μm. Cancer cells for stimulating the stem cells were cultured in the layer under the membrane, and the stem cells were cultured in the upper chamber to allow the cells to penetrate downward. At this time, the mobility was measured through the number of stem cells infiltrated the membrane.
In order to investigate the effect of ion channel activity on the ability of stem cells to migrate into cancer cells, the present inventors performed an analysis similar to Example 1-1 using DIDS (4,4′-Diisothiocyano-2,2′-stilbenedisulfonic acid) which is an ion channel inhibitor and antibodies specifically binding to ion channels (SLC4A4, SLC4A7). Particularly, in the case of lung cancer cells, 5×10^4 of bone marrow-derived mesenchymal stem cells (BMMSCs) as a control group and lung cancer cells (A549 and H1975) as an experimental group were dispensed onto the lower well, respectively, and cultured at 37° C. for 24 hours. […] Subsequently, stem cells migrated into the lower well through the transwell membrane were counted trough a confocal fluorescence microscope in order to measure their mobility (FIGS. 3A to 4D).

O=S(=O)(O)c1cc(N=C=S)ccc1C=Cc1ccc(N=C=S)cc1S(=O)(=O)O [DIDS, 4,4′-Diisothiocyano-2,2′-stilbenedisulfonic acid]
ability of the mesenchymal stem cells to migrate into cancer cells: decreased significantly
